The assay deals with BDF1 mice, s.c. Lewis lung carcinoma, T/C %. The assay is described as follows: NCI In Vivo Anticancer Drug Screen. Data for tumor model Lewis Lung Carcinoma (subcutaneous) in B6D2F1 (BDF1) mice. An outline of the steps:
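Tumor-bearing mice were treated with test compound, and either survival or tumor size was recorded. Values are the treated-group measurement divided by that of the vehicle-treated control group.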

Setting [1] is: endpoint: mean tumor weight, dose: 50.0 mg/kg/injection, schedule: Q01DX011 (sc), vehicle: steriod suspending solution, higher = larger tumour.
The mark [2] stands for this setting: endpoint: mean tumor weight, dose: 100.0 mg/kg/injection, schedule: Q01DX011 (sc), vehicle: steriod suspending solution, higher = larger tumour.

This is an account of results in PubChem BioAssay AID270 (DTP/NCI, 2004).

“And” between values parts separate entries of the source, which are not always exact repeats. Identical values can stand only once. Records with an inconclusive call do not appear.

In the case of `C[C@]12C=CC(=O)C=C1CC[C@@H]1[C@@H]2[C@@H](O)C[C@@]2(C)[C@H]1CC[C@]2(O)C(=O)CO`, the T/C was 81 % of control (endpoint: mean tumor weight, dose: 12.5 mg/kg/injection, schedule: Q01DX011 (sc), vehicle: steriod suspending solution, higher = larger tumour); 72 % of control (endpoint: mean tumor weight, dose: 25.0 mg/kg/injection, schedule: Q01DX011 (sc), vehicle: steriod suspending solution, higher = larger tumour); 51 % of control under setting [1]; 14 % of control under setting [2]; 99 % of control (endpoint: median survival time, dose: 40.0 mg/kg/injection, schedule: Q02DX009 (ip), vehicle: Klucel (hydroxypropylcellulose) (HPC), higher = longer survival); 93 % of control (endpoint: median survival time, dose: 80.0 mg/kg/injection, schedule: Q02DX009 (ip), vehicle: Klucel (hydroxypropylcellulose) (HPC), higher = longer survival). The T/C (endpoint: median survival time, dose: 320.0 mg/kg/injection, schedule: Q02DX009 (ip), vehicle: Klucel (hydroxypropylcellulose) (HPC), higher = longer survival) was 86 % of control.
On to `O=C1C=Cc2ccc(O)cc2C1=O`, for which the T/C by setting is: (endpoint: mean tumor weight, dose: 0.57 mg/kg/injection, schedule: Q01DX011 (ip), vehicle: saline, higher = larger tumour) 104 % of control; (endpoint: mean tumor weight, dose: 0.86 mg/kg/injection, schedule: Q01DX011 (ip), vehicle: saline, higher = larger tumour) 81 % of control; (endpoint: mean tumor weight, dose: 1.3 mg/kg/injection, schedule: Q01DX011 (ip), vehicle: saline, higher = larger tumour) 59 % of control; (endpoint: mean tumor weight, dose: 2.0 mg/kg/injection, schedule: Q01DX011 (ip), vehicle: saline, higher = larger tumour) 60 % of control.
With `CN(CCCOS(C)(=O)=O)CCCOS(C)(=O)=O`, the T/C (endpoint: mean tumor weight, dose: 5.0 mg/kg/injection, schedule: Q01DX011 (ip), vehicle: saline, higher = larger tumour) was 85 % of control; the T/C (endpoint: mean tumor weight, dose: 10.0 mg/kg/injection, schedule: Q01DX011 (ip), vehicle: saline, higher = larger tumour) is 78 % of control; the T/C (endpoint: mean tumor weight, dose: 20.0 mg/kg/injection, schedule: Q01DX011 (ip), vehicle: saline, higher = larger tumour) is 49 % of control; the T/C (endpoint: mean tumor weight, dose: 40.0 mg/kg/injection, schedule: Q01DX011 (ip), vehicle: saline, higher = larger tumour) is 59 % of control.
Turning to `CCOC(=O)CC(NC(=O)CP(=O)(OCC)OCC)C(=O)OCC` (centres undefined), the T/C reads like this: (endpoint: median survival time, dose: 50.0 mg/kg/injection, schedule: Q01DX004 (ip), vehicle: saline, higher = longer survival) 113 % of control; (endpoint: median survival time, dose: 100.0 mg/kg/injection, schedule: Q01DX004 (ip), vehicle: saline, higher = longer survival) 116 % of control; (endpoint: median survival time, dose: 200.0 mg/kg/injection, schedule: Q01DX004 (ip), vehicle: saline, higher = longer survival) 124 % of control; (endpoint: median survival time, dose: 400.0 mg/kg/injection, schedule: Q01DX004 (ip), vehicle: saline, higher = longer survival) 116 % of control; (endpoint: median survival time, dose: 800.0 mg/kg/injection, schedule: Q01DX004 (ip), vehicle: saline, higher = longer survival) 116 % of control; (endpoint: median survival time, dose: 1600.0 mg/kg/injection, schedule: Q01DX004 (ip), vehicle: saline, higher = longer survival) 120 % of control.
For `CCC1CCC(NC(=O)N(CCF)N=O)CC1` (centres undefined), where the note is “endpoint: median tumor weight (est.), dose: 50.0 mg/kg/injection, schedule: Q01DX001 (ip), vehicle: saline with Tween-80, higher = larger tumour”, the T/C was 62 % of control.
`C/C=C1\CN(C)[C@H]2Cc3c([nH]c4ccccc34)[C@@H](c3cc4[nH]c5c(c4cc3OC)CCN3C[C@H]4C[C@H](CC)[C@H]3[C@@]5(C(=O)OC)C4)C[C@H]1C2C(=O)OC` (some centres undefined): the T/C (endpoint: mean tumor weight, dose: 18.0 mg/kg/injection, schedule: Q01DX011 (ip), vehicle: water, higher = larger tumour) is 66 % of control; the T/C (endpoint: mean tumor weight, dose: 27.0 mg/kg/injection, schedule: Q01DX011 (ip), vehicle: water, higher = larger tumour) is 81 % of control; the T/C (endpoint: mean tumor weight, dose: 40.0 mg/kg/injection, schedule: Q01DX011 (ip), vehicle: water, higher = larger tumour) was 62 % of control.
In the case of `COc1cc2c[n+](C)c3c4cc5c(cc4ccc3c2cc1OC)OCO5`, the T/C by setting is: (endpoint: median survival time, dose: 5.0 mg/kg/injection, schedule: Q01DX009 (ip), vehicle: water, higher = longer survival) 103 % of control; (endpoint: median survival time, dose: 10.0 mg/kg/injection, schedule: Q01DX009 (ip), vehicle: water, higher = longer survival) 107 % of control; (endpoint: median survival time, dose: 20.0 mg/kg/injection, schedule: Q01DX009 (ip), vehicle: water, higher = longer survival) 87 % of control.
Turning to `COc1c(OC)c(OC)c(-c2cc(=O)c3c(OC)c(OC)c(OC)c(OC)c3o2)c(OC)c1OC`, the T/C runs as follows: under setting [1], 97 % of control; under setting [2], 105 % of control; (endpoint: mean tumor weight, dose: 200.0 mg/kg/injection, schedule: Q01DX011 (sc), vehicle: steriod suspending solution, higher = larger tumour) 97 % of control; (endpoint: mean tumor weight, dose: 400.0 mg/kg/injection, schedule: Q01DX011 (sc), vehicle: steriod suspending solution, higher = larger tumour) 83 % of control.
`c1cc[c]([Sn]([S][Sn]([c]2ccccc2)([c]2ccccc2)[c]2ccccc2)([c]2ccccc2)[c]2ccccc2)cc1`: the T/C reads like this: (endpoint: median survival time, dose: 50.0 mg/kg/injection, schedule: Q01DX009 (ip), vehicle: saline with Tween-80, higher = longer survival) 91 % of control; (endpoint: median survival time, dose: 100.0 mg/kg/injection, schedule: Q01DX009 (ip), vehicle: saline with Tween-80, higher = longer survival) 93 % of control; (endpoint: median survival time, dose: 200.0 mg/kg/injection, schedule: Q01DX009 (ip), vehicle: saline with Tween-80, higher = longer survival) 102 % of control.
In the case of `Cc1ccc(NC(=O)N(CCBr)N=O)cc1`, the T/C is, setting by setting: (endpoint: median survival time, dose: 0.5 mg/kg/injection, schedule: Q01DX009 (ip), vehicle: other, higher = longer survival) 101 % of control; (endpoint: median survival time, dose: 1.0 mg/kg/injection, schedule: Q01DX009 (ip), vehicle: other, higher = longer survival) 103 % of control; (endpoint: median survival time, dose: 1.6 mg/kg/injection, schedule: Q01DX009 (ip), vehicle: other, higher = longer survival) 97 % of control; (endpoint: median survival time, dose: 2.0 mg/kg/injection, schedule: Q01DX009 (ip), vehicle: other, higher = longer survival) 106 % of control; (endpoint: median survival time, dose: 4.0 mg/kg/injection, schedule: Q01DX009 (ip), vehicle: other, higher = longer survival) 97 % of control; (endpoint: median survival time, dose: 6.25 mg/kg/injection, schedule: Q01DX009 (ip), vehicle: other, higher = longer survival) 94 % of control and 99 % of control. Further, the T/C (endpoint: median survival time, dose: 12.5 mg/kg/injection, schedule: Q01DX009 (ip), vehicle: other, higher = longer survival) is 95 % of control; the T/C (endpoint: median survival time, dose: 25.0 mg/kg/injection, schedule: Q01DX009 (ip), vehicle: other, higher = longer survival) is 96 % of control; the T/C (endpoint: median survival time, dose: 50.0 mg/kg/injection, schedule: Q01DX009 (ip), vehicle: other, higher = longer survival) is 96 % of control.
For the molecule `CC1C/C=C2\CSC(NC(=O)/C3=C\N(C/C=C/C=C/C(O)CC(O)CC(=O)N3)C2=O)C(=O)O1` (centres undefined), the T/C is 88 % of control (endpoint: mean tumor weight, dose: 10.6 mg/kg/injection, schedule: Q01DX011 (ip), vehicle: carboxymethylcellulose (CMC), higher = larger tumour); 169 % of control (endpoint: mean tumor weight, dose: 16.0 mg/kg/injection, schedule: Q01DX011 (ip), vehicle: carboxymethylcellulose (CMC), higher = larger tumour); 68 % of control (endpoint: mean tumor weight, dose: 24.0 mg/kg/injection, schedule: Q01DX011 (ip), vehicle: carboxymethylcellulose (CMC), higher = larger tumour); 114 % of control (endpoint: mean tumor weight, dose: 36.0 mg/kg/injection, schedule: Q01DX011 (ip), vehicle: carboxymethylcellulose (CMC), higher = larger tumour).
Turning to `CC(=O)Nc1ccc(Cl)c(Cl)c1`, the T/C runs as follows: (endpoint: median survival time, dose: 50.0 mg/kg/injection, schedule: Q01DX009 (ip), vehicle: Klucel (hydroxypropylcellulose) (HPC), higher = longer survival) 120 % of control and 124 % of control; (endpoint: median survival time, dose: 100.0 mg/kg/injection, schedule: Q01DX009 (ip), vehicle: Klucel (hydroxypropylcellulose) (HPC), higher = longer survival) 106 % of control; (endpoint: median survival time, dose: 200.0 mg/kg/injection, schedule: Q01DX009 (ip), vehicle: Klucel (hydroxypropylcellulose) (HPC), higher = longer survival) 98 % of control.
For the molecule `CC(=O)c1c(O)c(C)c(O)c(Cc2c(O)c3c(c(C(=O)/C=C/c4ccccc4)c2O)OC(C)(C)C=C3)c1O`, the T/C reads like this: (endpoint: mean tumor weight, dose: 15.0 mg/kg/injection, schedule: Q01DX011 (ip), vehicle: saline, higher = larger tumour) 96 % of control; (endpoint: mean tumor weight, dose: 22.0 mg/kg/injection, schedule: Q01DX011 (ip), vehicle: saline, higher = larger tumour) 82 % of control; (endpoint: mean tumor weight, dose: 35.0 mg/kg/injection, schedule: Q01DX011 (ip), vehicle: saline, higher = larger tumour) 79 % of control.
